{"source": "paper PMC12131194", "about": "“Rational design, synthesis, and evaluation of novel polypharmacological compounds targeting NaV1.5, KV1.5, and K2P channels for atrial fibrillation” (The Journal of Biological Chemistry, 2025)", "biological_target": "T1, h NaV1.5 (Homo sapiens, UniProt Q14524, R1027Q)", "T1 construct": "expressed in transfected cells; host or cells: Xenopus laevis oocytes injected with cRNA", "T1 sequence (Q14524 whole entry R1027Q)": "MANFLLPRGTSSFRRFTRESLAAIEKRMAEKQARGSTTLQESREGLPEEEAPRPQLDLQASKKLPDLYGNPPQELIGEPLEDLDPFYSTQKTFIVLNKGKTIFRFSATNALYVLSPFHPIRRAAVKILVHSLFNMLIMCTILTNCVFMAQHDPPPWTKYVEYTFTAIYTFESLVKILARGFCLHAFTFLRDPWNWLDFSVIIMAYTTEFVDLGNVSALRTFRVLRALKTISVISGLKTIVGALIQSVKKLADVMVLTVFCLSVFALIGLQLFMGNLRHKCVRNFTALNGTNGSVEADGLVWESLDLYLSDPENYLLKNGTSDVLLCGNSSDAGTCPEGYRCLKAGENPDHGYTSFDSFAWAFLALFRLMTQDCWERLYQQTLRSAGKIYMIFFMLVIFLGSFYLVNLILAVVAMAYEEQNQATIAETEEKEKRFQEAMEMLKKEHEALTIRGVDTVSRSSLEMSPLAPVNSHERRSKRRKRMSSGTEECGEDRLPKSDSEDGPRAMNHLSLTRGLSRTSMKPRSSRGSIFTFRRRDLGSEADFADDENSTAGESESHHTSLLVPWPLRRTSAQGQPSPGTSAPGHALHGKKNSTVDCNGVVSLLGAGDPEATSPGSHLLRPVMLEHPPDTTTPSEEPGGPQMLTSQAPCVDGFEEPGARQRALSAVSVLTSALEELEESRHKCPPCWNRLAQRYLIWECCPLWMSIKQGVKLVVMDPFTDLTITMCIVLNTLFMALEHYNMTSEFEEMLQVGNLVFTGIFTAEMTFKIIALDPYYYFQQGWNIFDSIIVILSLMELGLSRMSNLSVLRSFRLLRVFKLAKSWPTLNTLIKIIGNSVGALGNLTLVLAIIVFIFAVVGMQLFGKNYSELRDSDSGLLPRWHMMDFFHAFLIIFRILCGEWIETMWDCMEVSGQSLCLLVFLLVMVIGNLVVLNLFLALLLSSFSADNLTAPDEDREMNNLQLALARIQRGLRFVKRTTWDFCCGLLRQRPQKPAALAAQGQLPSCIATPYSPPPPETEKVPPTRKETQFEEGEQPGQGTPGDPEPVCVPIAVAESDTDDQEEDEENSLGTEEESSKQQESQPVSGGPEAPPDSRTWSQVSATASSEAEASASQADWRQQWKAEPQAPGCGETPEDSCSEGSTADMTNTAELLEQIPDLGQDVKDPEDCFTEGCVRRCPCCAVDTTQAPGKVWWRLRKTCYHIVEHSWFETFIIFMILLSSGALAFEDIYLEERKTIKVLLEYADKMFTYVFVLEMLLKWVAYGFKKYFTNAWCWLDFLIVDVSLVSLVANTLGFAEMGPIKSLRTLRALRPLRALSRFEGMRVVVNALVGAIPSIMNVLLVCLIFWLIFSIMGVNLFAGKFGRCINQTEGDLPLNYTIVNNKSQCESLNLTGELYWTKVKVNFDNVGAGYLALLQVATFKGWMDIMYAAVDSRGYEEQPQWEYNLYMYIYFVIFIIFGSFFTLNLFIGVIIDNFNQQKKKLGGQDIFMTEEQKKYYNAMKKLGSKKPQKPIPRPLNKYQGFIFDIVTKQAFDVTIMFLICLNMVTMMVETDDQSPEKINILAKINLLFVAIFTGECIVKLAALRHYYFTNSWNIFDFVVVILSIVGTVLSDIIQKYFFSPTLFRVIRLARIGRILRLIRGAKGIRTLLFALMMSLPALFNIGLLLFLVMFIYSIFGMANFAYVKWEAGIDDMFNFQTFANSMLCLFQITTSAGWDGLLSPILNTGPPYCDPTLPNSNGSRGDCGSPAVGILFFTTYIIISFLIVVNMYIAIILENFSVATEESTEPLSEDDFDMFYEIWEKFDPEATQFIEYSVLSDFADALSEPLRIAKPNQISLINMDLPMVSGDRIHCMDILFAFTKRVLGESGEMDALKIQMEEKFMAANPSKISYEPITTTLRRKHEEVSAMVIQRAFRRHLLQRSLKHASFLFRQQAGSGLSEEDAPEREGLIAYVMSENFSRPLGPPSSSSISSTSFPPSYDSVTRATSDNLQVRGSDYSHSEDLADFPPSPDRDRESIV", "assay": "TEVC recordings in X. laevis oocytes, NaV1.5", "type": "cell-based", "conditions": "for Ionic current block INa: from inhibition curves, used for simulation", "experimental": "To obtain X. laevis oocytes, the frogs were anesthetized with 2 g/L of tricaine methanesulfonate, and the ovarian lobes were mechanically separated with forceps. The oocytes were incubated for 120 min in an OR2 solution containing in mM: NaCl 82.5, KCl 2, MgCl2 1, HEPES 5 (pH 7.5) supplemented with 2 mg/ml of collagenase II (Sigma) to remove residual connective tissue and obtain individual oocytes. Subsequently, the oocytes were washed with a ND96 solution containing in mM: NaCl 96, KCl 2, CaCl2 1.8, MgCl2 1, HEPES 5 (pH 7.5, adjusted with NaOH) and stored at 18 °C in ND96 solution supplemented with 1 ml of gentamicin (50 mg/L), sodium pyruvate (275 mg/L) and (90 mg/L) theophylline (inhibits further oocyte maturation) before and after RNA injection.\nIn order to overexpress the channel in the oocyte, each of the channels to be measured was subcloned (complementary DNA (cDNA); human TASK-1 (KCNK3, NM_002246), h KV1.5 (KCNA5, NM_002234), h NaV1.5 (hH1, M77235), TASK-4/TALK-2 (KCNK17, NM_AF358910), TREK-1 (KCNK2, AF004711) and Kir2.1 (KCNJ2, NM_017296) into pSGEM, pBF1 or pSP64 expression vector, and the cDNA was linearized with NheI or MluI. Complementary RNA (cRNA) was synthesized with the mMESSAGE mMACHINE-Kit (Ambion). The quality of the cRNA was tested on an agarose gel by electrophoresis. cRNA was quantified using a UV-Vis spectrophotometer (NanoDrop 2000). Subsequently, the channel was transfected in the oocytes in stages V and VI, for which […] (TASK-1, KV1.5 or TREK-1), 10 ng (NaV1.5 or TASK-4) o 2.5 ng (Kir2.1) per oocyte of cRNA was injected with a NanojectII microinjector (Drummond Scientific). The oocytes were stored in 24-well plates for 24 to 48 h at 18 °C. After this time, the overexpression of each channel was monitored through electrophysiology.\nTwo-electrode voltage clamp measurements were performed 24 or 48 h after cRNA injection at room temperature (20–22 °C) in ND96 recording solution with a TurboTEC-10CD (npi) amplifier and a Digidata 1550B (for TASK-1 and KV1.5) and 1440A (for NaV1.5) A/D converter from Axon Instruments. Micropipettes were fabricated from GB 150 TF-8P borosilicate glass capillaries (Science Products) elongated in a DMZ-Universal Puller (Zeitz, Germany). […] ND96 was used as bath solution. Data acquisition was performed using Clampex 10 software (Axon Instruments), and data were analyzed with ClampFit 10 (Axon Instruments) and Origin 7 (Origin Lab Corporation).\nFor compound inhibition testing, from a holding potential of −80 mV a first test pulse to 0 mV of 1 s duration was followed by a repolarization step at −80 mV for 1 s, directly followed by another 1 s test pulse at +40 mV. The sweep time interval was 10 s for KV1.5 and TASK-1 channels. For the NaV1.5 channel, the block was analyzed with voltage steps from a holding potential of −80 mV. A first depolarizing pulse to −30 mV of 50 ms duration was applied, followed by a 5 ms step to −80 mV. The sweep time interval was 5 s. The compounds were applied at different concentrations to determine the half-maximal inhibitory concentration (IC50), using a fit to the Hill equation.\nTo test for a putative voltage-dependence of the block by the compound 6f in KV1.5, a 1.5 s voltage step protocol from −80 to +80 mV with +20 mV increments was used. The holding potential was −80 mV and the sweep time interval was 10 s. Currents were analyzed at the end of the voltage pulse. For TASK-1, voltage-dependence of block was probed using a high-potassium solution (KD96) containing in mM: KCl 96, NaCl 2, CaCl2 1.8, MgCl2 1, HEPES 5, (pH 7.5, adjusted with KOH). From a holding potential of 0 mV, voltage was stepped from −80 mV to +80 mV for 1.5 s in +20 mV steps every 10 s. To determine the current-voltage relationship of the NaV1.5 channel, the voltage was stepped for 50 ms from a holding potential of −80 mV to −70 mV to +80 mV in +10 mV increments every 5 s. The peak currents were subsequently plotted against the respective applied voltages.", "data": [{"smiles": "CCCCN(CCCC)CC(=O)Nc1ccc(OC)cc1OC", "note": "[Compound 6f, 2-(dibutylamine)-N-(2,4-dimethoxiphenyl)acetamide]", "values": [{"measurement": "Ionic current block INa", "setting": "1 μM", "value": 16, "unit": "%"}, {"measurement": "Ionic current block INa", "setting": "10 μM", "value": 30, "unit": "%"}, {"measurement": "Ionic current block INa", "setting": "100 μM", "value": 65, "unit": "%"}, {"measurement": "inhibition at 100 µM", "setting": "100 μM, −30 mV, oocytes, mean ± SD", "value": "62.4 ± 20.6", "unit": "%"}, {"measurement": "Voltage-dependence of block of NaV1.5", "setting": "oocytes, 100 μM", "value": "small but significant variations"}, {"measurement": "Frequency-dependent inhibition of NaV1.5", "setting": "oocytes, 100 μM, 1, 2 and 3 Hz", "value": "did not observe a significant frequency-dependent inhibition"}]}]}
